In this experiment the test system is BDF1 mice, P388 leukemia ip, median survival T/C. As to the kind of experiment: NCI In Vivo Anticancer Drug Screen. Data for tumor model P388 Leukemia (intraperitoneal) in B6D2F1 (BDF1) mice. To be noted: endpoint: median survival time, higher = longer survival. Summed up:
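Transplantable tumour in mice; compound vs vehicle dosing; survival scored; ratio of treated to control reported.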

Setting [1] is: dose: 25.0 mg/kg/injection, schedule: Q01DX009 (ip), vehicle: saline.
[2] abbreviates: dose: 25.0 mg/kg/injection, schedule: Q04DX003 (ip), vehicle: saline.
The mark [3] stands for this setting: dose: 50.0 mg/kg/injection, schedule: Q01DX009 (ip), vehicle: saline.
Setting [4] is: dose: 100.0 mg/kg/injection, schedule: Q04DX003 (ip), vehicle: saline.
The mark [5] stands for this setting: dose: 200.0 mg/kg/injection, schedule: Q04DX003 (ip), vehicle: saline.
Setting [6] is: dose: 400.0 mg/kg/injection, schedule: Q04DX003 (ip), vehicle: saline.
Where [7] appears, read: dose: 1.56 mg/kg/injection, schedule: Q01DX009 (ip), vehicle: saline with Tween-80.
Where [8] appears, read: dose: 6.25 mg/kg/injection, schedule: Q01DX009 (ip), vehicle: saline with Tween-80.
The mark [9] stands for this setting: dose: 50.0 mg/kg/injection, schedule: Q01DX009 (ip), vehicle: saline with Tween-80.
The mark [10] stands for this setting: dose: 100.0 mg/kg/injection, schedule: Q01DX009 (ip), vehicle: saline with Tween-80.
The mark [11] stands for this setting: dose: 200.0 mg/kg/injection, schedule: Q01DX009 (ip), vehicle: saline with Tween-80.
The mark [12] stands for this setting: dose: 100.0 mg/kg/injection, schedule: Q04DX003 (ip), vehicle: saline with Tween-80.
Setting [13] is: dose: 200.0 mg/kg/injection, schedule: Q04DX003 (ip), vehicle: saline with Tween-80.
The mark [14] stands for this setting: dose: 50.0 mg/kg/injection, schedule: Q04DX003 (ip), vehicle: saline with Tween-80.

Experimental findings from PubChem BioAssay AID328 (DTP/NCI, 2004) are described below.

Where “and” joins values, the source holds several entries; their conditions need not be identical. Identical values can stand only once. Toxic doses and inconclusive results are not listed.

Turning to `CC(=O)Oc1ccc(OC(C)=O)c2c1CC1(C)OC1(C)C2` (stereo unspecified), the T/C reads like this: (dose: 1.56 mg/kg/injection, schedule: Q01DX009 (ip), vehicle: saline) 96 % of control; (dose: 3.12 mg/kg/injection, schedule: Q01DX009 (ip), vehicle: saline) 96 % of control; (dose: 6.25 mg/kg/injection, schedule: Q01DX009 (ip), vehicle: saline) 99 % of control; (dose: 12.5 mg/kg/injection, schedule: Q01DX009 (ip), vehicle: saline) 88 % of control; under setting [1], 88 % of control; under setting [2], 96 % of control. The T/C reads like this: under setting [3], 97 % of control and 109 % of control; (dose: 50.0 mg/kg/injection, schedule: Q04DX003 (ip), vehicle: saline) 107 % of control; (dose: 100.0 mg/kg/injection, schedule: Q01DX009 (ip), vehicle: saline) 96 % of control; under setting [4], 87 % of control; (dose: 200.0 mg/kg/injection, schedule: Q01DX009 (ip), vehicle: saline) 94 % of control; under setting [5], 103 % of control. Further, the T/C by setting is: (dose: 400.0 mg/kg/injection, schedule: Q01DX009 (ip), vehicle: saline) 90 % of control; under setting [6], 100 % of control.
Regarding `C[CH2][Pb]([CH2]C)([CH2]C)[O]C(=O)COc1ccccc1`, the T/C runs as follows: (dose: 0.75 mg/kg/injection, schedule: Q01DX009 (ip), vehicle: Klucel (hydroxypropylcellulose) (HPC)) 118 % of control; (dose: 0.75 mg/kg/injection, schedule: Q04DX003 (ip), vehicle: saline with Tween-80) 107 % of control; (dose: 1.5 mg/kg/injection, schedule: Q04DX003 (ip), vehicle: saline with Tween-80) 117 % of control; under setting [7], 115 % of control; (dose: 3.9 mg/kg/injection, schedule: Q04DX003 (ip), vehicle: alcohol) 112 % of control; (dose: 6.0 mg/kg/injection, schedule: Q01DX009 (ip), vehicle: Klucel (hydroxypropylcellulose) (HPC)) 117 % of control. Also, the T/C is 120 % of control (dose: 6.0 mg/kg/injection, schedule: Q04DX003 (ip), vehicle: alcohol); 153 % of control and 168 % of control under setting [8]; 105 % of control (dose: 9.0 mg/kg/injection, schedule: Q04DX003 (ip), vehicle: alcohol); 107 % of control (dose: 12.0 mg/kg/injection, schedule: Q04DX003 (ip), vehicle: saline with Tween-80).
As to `Cc1cccc(=O)n1CCC#N`, the T/C runs as follows: under setting [4], 96 % of control; under setting [5], 96 % of control; under setting [6], 100 % of control.
Regarding `COC1/C=C/OC2(C)Oc3c(C)c(O)c4c(O)c(c(/C=N/N5CCN(Cc6ccccc6)CC5)c(O)c4c3C2=O)NC(=O)C(C)=C/C=C/C(C)C(O)C(C)C(O)C(C)C(OC(C)=O)C1C` (stereo unspecified), the T/C is 119 % of control under setting [1] and 100 % of control under setting [3].
In the case of `CCCCCCC(=O)O[C@H]1CC[C@H]2[C@@H]3CCC4=CC(=O)CC[C@]4(C)[C@H]3CC[C@]12C`, the T/C runs as follows: (dose: 25.0 mg/kg/injection, schedule: Q01DX009 (ip), vehicle: other) 120 % of control; (dose: 25.0 mg/kg/injection, schedule: Q04DX003 (ip), vehicle: other) 100 % of control; (dose: 50.0 mg/kg/injection, schedule: Q01DX009 (ip), vehicle: other) 100 % of control; (dose: 50.0 mg/kg/injection, schedule: Q04DX003 (ip), vehicle: other) 100 % of control; (dose: 66.0 mg/kg/injection, schedule: Q01DX009 (ip), vehicle: other) 100 % of control; (dose: 100.0 mg/kg/injection, schedule: Q01DX009 (ip), vehicle: other) 100 % of control. For the same molecule, the T/C is 100 % of control (dose: 100.0 mg/kg/injection, schedule: Q04DX003 (ip), vehicle: other) and 90 % of control (dose: 150.0 mg/kg/injection, schedule: Q01DX009 (ip), vehicle: other).
With `CC(O)C(O)C(N)CC=O` (stereo unspecified), the T/C is, setting by setting: (dose: 1.25 mg/kg/injection, schedule: Q01DX001 (ip), vehicle: saline) 100 % of control and 110 % of control; (dose: 2.5 mg/kg/injection, schedule: Q01DX001 (ip), vehicle: saline) 100 % of control and 110 % of control; (dose: 5.0 mg/kg/injection, schedule: Q01DX001 (ip), vehicle: saline) 100 % of control and 110 % of control; (dose: 10.0 mg/kg/injection, schedule: Q01DX001 (ip), vehicle: saline) 100 % of control and 105 % of control.
With `C=CC(COC(C)=O)N1CC1` (stereo unspecified), the T/C by setting is: (dose: 4.0 mg/kg/injection, schedule: Q01DX009 (ip), vehicle: saline) 104 % of control; (dose: 6.0 mg/kg/injection, schedule: Q01DX009 (ip), vehicle: saline) 115 % of control; (dose: 8.0 mg/kg/injection, schedule: Q01DX009 (ip), vehicle: saline) 112 % of control; (dose: 12.0 mg/kg/injection, schedule: Q04DX003 (ip), vehicle: saline) 110 % of control; (dose: 17.0 mg/kg/injection, schedule: Q01DX009 (ip), vehicle: saline) 116 % of control; under setting [1], 150 % of control and 165 % of control. For the same molecule, the T/C is 120 % of control under setting [2] and 180 % of control (dose: 37.0 mg/kg/injection, schedule: Q01DX009 (ip), vehicle: saline).
As for `COC(=O)C1=C(C(=O)OC)C(C(=O)OC)N2C=C(C)C=CC2=C1C(=O)OC` (stereo unspecified), the T/C runs as follows: under setting [9], 102 % of control; under setting [10], 100 % of control; under setting [11], 98 % of control.
Turning to `Cc1nc2nc(N)[nH]c(=O)c2[nH]c1=O`, the T/C runs as follows: under setting [10], 104 % of control; under setting [11], 100 % of control; (dose: 400.0 mg/kg/injection, schedule: Q01DX009 (ip), vehicle: saline with Tween-80) 109 % of control.
For `CC(=O)c1ccccc1NC=O`, the T/C under setting [12] is 100 % of control; the T/C under setting [13] is 104 % of control; the T/C (dose: 400.0 mg/kg/injection, schedule: Q04DX003 (ip), vehicle: saline with Tween-80) is 108 % of control.
In the case of `O=C1NC(c2ccccc2)(c2ccccc2)C(=O)N1SC(Cl)(Cl)Cl`, the T/C runs as follows: (dose: 3.12 mg/kg/injection, schedule: Q01DX009 (ip), vehicle: Klucel (hydroxypropylcellulose) (HPC)) 123 % of control; (dose: 6.25 mg/kg/injection, schedule: Q01DX009 (ip), vehicle: Klucel (hydroxypropylcellulose) (HPC)) 120 % of control; (dose: 12.5 mg/kg/injection, schedule: Q01DX009 (ip), vehicle: Klucel (hydroxypropylcellulose) (HPC)) 120 % of control; (dose: 25.0 mg/kg/injection, schedule: Q01DX009 (ip), vehicle: Klucel (hydroxypropylcellulose) (HPC)) 117 % of control; (dose: 50.0 mg/kg/injection, schedule: Q01DX009 (ip), vehicle: Klucel (hydroxypropylcellulose) (HPC)) 106 % of control.
`O=S(=O)(OCCCl)C(F)(F)F`: the T/C by setting is: under setting [7], 119 % of control; (dose: 3.12 mg/kg/injection, schedule: Q01DX009 (ip), vehicle: saline with Tween-80) 107 % of control; under setting [8], 120 % of control.
As to `CCOC(=O)c1cnn(C(N)=S)c1N`, the T/C reads like this: under setting [9], 90 % of control; under setting [14], 104 % of control; (dose: 66.0 mg/kg/injection, schedule: Q04DX003 (ip), vehicle: saline with Tween-80) 104 % of control; under setting [12], 90 % of control and 104 % of control; (dose: 150.0 mg/kg/injection, schedule: Q04DX003 (ip), vehicle: saline with Tween-80) 90 % of control; under setting [13], 100 % of control.
Consider `O=c1[nH]ccc2c(O)cccc12`, for which the T/C under setting [9] is 96 % of control; the T/C under setting [14] was 100 % of control; the T/C under setting [10] is 92 % of control; the T/C under setting [12] is 95 % of control; the T/C under setting [11] is 96 % of control; the T/C under setting [13] is 91 % of control.
Regarding `COc1ccc2c3c(ccc2c1)C1=C(C(=O)O)CC(=O)C1(C)CC3` (stereo unspecified), the T/C was 108 % of control (dose: 100.0 mg/kg/injection, schedule: Q04DX003 (sc), vehicle: steriod suspending solution); 100 % of control (dose: 200.0 mg/kg/injection, schedule: Q04DX003 (sc), vehicle: steriod suspending solution); 95 % of control (dose: 400.0 mg/kg/injection, schedule: Q04DX003 (sc), vehicle: steriod suspending solution).
